The subject of data set [1] is tetrabenazine ptosis. The experiment in a line: Effect on tetrabenazine ptosis (TBZ), mouse (Method 1). In kind it is in vivo, mouse (NMRI). The conditions noted are these: po, 0.5 h. The method, then: (§1) The appropriate amount of a homogenate of the particular substance in aqueous carboxymethylcellulose is fed to 6 male animals by means of a gavage one hour before treatment with tetrabenazine (40 mg/kg), intraperitoneally).
(§2) 1. Test of the effect on tetrabenazine ptosis (TBZ)
(§3) Test on mice (NMRI), male, weight 19-21 g, or on rats (Wistar), male, about 120 g body weight. Preparation administered orally, homogenized in 1% strength tylose, 1 hour before tetrabenzine, 40 mg/kg, administered subcutaneously (N=6/dose). During the test, 6 animals are present together in one container. To test for upper lid ptosis, the animals are placed individually on the table top. The extent of the ptosis (0-4 points) is assessed and is expressed as a percentage of the maximum score achievable. Evaluation is carried out 30 minutes after administration of tetrabenazine.

The next data set concerns yohimbine toxicity. The experiment in a line: Potentiation of the yohimbine toxicity in mice (Method 2). The conditions noted are these: 1 hour before yohimbine hydrochloride 20 mg/kg s.c.; for LD50, potentiation of yohimbine toxicity (Method 2, mouse): oral, deaths after 18 hours. Type of data set: in vivo, mouse (NMRI). The method, then: The compounds I and their acid addition salts potentiate the toxicity of yohimbine in mice. Antidepressants of type I administered orally in a dose of 0.5 to 100 mg/kg increased the death rate for an otherwise non-fatal dose of yohimbine hydrochloride (20 mg/kg, administered subcutaneously).
2. Potentiation of the yohimbine toxicity in mice
The toxicity of yohimbine, a blocker of presynaptic alpha-receptors, is potentiated by antidepressants (literature: R. M. Quinton, Brit. J. Pharmac. 21, 55-56 (1963). Male mice, NMRI strain, 20-22 g, were arranged in test groups of n=10. The test preparation was suspended in 1% strength aqueous Tylose® slime and administered orally in a volume of 10 ml/kg. Control received only the vehicle.
After a pretreatment time of 1 hour, all animals received a dose of yohimbine hydrochloride, which dose, when administered alone, is non-toxic (20 mg/kg, administered subcutaneously). The dead animals were determined 18 hours after this treatment. (Calculation of the LD50 by probit analysis).

Another data set concerns stereotypes. The data set is described as follows: Test of the promotion of stereotypes in rats (Method 3). Conditions: for ED50: read-out: ED50, dose at which half the maximum possible number of points is reached (Method 3, rat). In kind it is in vivo, rat (Wistar). The method, then:
3. Test of the promotion of stereotypes in rats
The tests were carried out on 130-140 g male Wistar rats. The stereotypes were assessed at 15 minute intervals during the first two hours after administration of the substance, and then at half-hourly intervals up to the 6th hour. The scale below was used. […]
The number of points were calculated as a total number per 6 hours, divided by the number of observations.
The ED50 dose is the dose at which half the maximum possible number of points (5 points multiplied by the number of observations) is reached.

For data set [2], the system named is tetrabenazine ptosis. The experiment in a line: Effect on tetrabenazine ptosis (TBZ), rat (Method 1). In kind it is in vivo, rat (Wistar). The conditions noted are these: po, 0.5 h. The method, then: as §1, §2, §3
Setting [3] is: read-out: ED50, 50% reduction in the degree of ptosis (Method 1), mouse, p.o., 1 hour before tetrabenazine 40 mg/kg.
[4] abbreviates: Mus musculus, read-out: ED50, 50% reduction in the degree of ptosis (Method 1, mouse).
[5] abbreviates: Rattus norvegicus, read-out: ED50, 50% reduction in the degree of ptosis (Method 1, rat).

Read-outs that look alike come from different tables or passages of the source.

The source of these data is patent US5100890A, “Arylmethylazoles and their salts, agents which contain these compounds, and their use” (priority 1985, dated 1992).

Consider `CN1Cc2c(N)cccc2C(c2ccccc2)C1` (centres unmarked) [Nomifensin, reference compound], for which the ED50 (commonly the midpoint of the dose-response relation) is 0.72 mg/kg with tetrabenazine ptosis [1] (setting [3]); 11.9 mg/kg in the data set with stereotypes (Rattus norvegicus, 6 h); 2.7 mg/kg in the data set on tetrabenazine ptosis [2] (read-out: ED50, 50% reduction in the degree of ptosis (Method 1), rat, p.o., 1 hour before tetrabenazine 40 mg/kg). Also, the “LD50, potentiation of yohimbine toxicity (Method 2, mouse)” value (“LD50, potentiation of yohimbine toxicity” below) in the data set on yohimbine toxicity came out at 8.6 mg/kg.

For the compound `OC1(C(c2ccc3ccccc3c2)n2ccnc2)C2CC3CC(C2)CC1C3` (centres unmarked) [Example 126], the ED50 with tetrabenazine ptosis [1] (setting [4]) was 3 mg/kg. The “LD50, potentiation of yohimbine toxicity” value with yohimbine toxicity worked out at 3.2 mg/kg.

For the compound `OC(C(c1cccc(Cl)c1)n1ccnc1)C12CC3CC(CC(C3)C1)C2` (centres unmarked) [Example 105, 1-(1-Adamantyl)-2-(3-chlorophenyl)-2-(1-imidazolyl)-ethanol], the “LD50, potentiation of yohimbine toxicity” value in the data set on yohimbine toxicity was determined as 8.5 mg/kg. In the data set on stereotypes (po, rat, p.o., 6 hours), the ED50 was more than 30 mg/kg.

In the case of `CC(C)(C)C(O)C(c1ccc(-c2ccccc2)cc1)n1ccnc1` (centres unmarked) [Example 4, 1-(4-Biphenyl)-3,3-dimethyl-1-(1-imidazolyl)-butan-2-ol], the “LD50, potentiation of yohimbine toxicity” value in the data set on yohimbine toxicity worked out at 5.3 mg/kg. Also, in the data set with stereotypes (po, rat, p.o., 6 hours), the ED50 was more than 30 mg/kg.

With `COc1ccc(C(n2ccnc2)C2(O)C3CC4CC(C3)CC2C4)cc1OC` (centres unmarked) [Example 120], the ED50 with tetrabenazine ptosis [1] (setting [4]) worked out at 3 mg/kg. For the same compound, the “ED50 (Method 2, mouse)” value in the data set with yohimbine toxicity (p.o., given as ED50, 1080 min) was found to be 3 mg/kg.

On to `O=C(O)C(O)C(O)C(=O)O.OC1(C(c2cccc(Cl)c2)n2ccnc2)C2CC3CC(C2)CC1C3` (single isomer, unassigned; (+)) [Example 168a, (+)-(3-chlorophenyl)-(2-hydroxy-2-adamantyl)-(1-imidazolyl)-methane hydrogen tartrate], for which the ED50 in the data set with tetrabenazine ptosis [1] (setting [4]) was determined as 2.5 mg/kg; in the data set on stereotypes (Rattus norvegicus, po, 6 h) it was 30 mg/kg; in the data set on tetrabenazine ptosis [2] (setting [5]) it was 5.5 mg/kg. In addition, in the data set on yohimbine toxicity, the “LD50, potentiation of yohimbine toxicity” value was found to be 4.6 mg/kg.

For `Cc1cccc(C(n2ccnc2)C2(O)C3CC4CC(C3)CC2C4)c1` (centres unmarked) [Example 106, (2-Hydroxy-2-adamantyl)-1-imidazolyl-(3-tolyl)-methane], the ED50 was 1.5 mg/kg in the data set with tetrabenazine ptosis [1] (setting [3]) and more than 30 mg/kg with stereotypes (po, rat, p.o., 6 hours). Besides, the “LD50, potentiation of yohimbine toxicity” value in the data set on yohimbine toxicity came to 7 mg/kg.

In the case of `OC1(C(c2cccc(Cl)c2)n2ccnc2)C2CC3CC(C2)CC1C3` (racemic) [Example 25, (3-chlorophenyl)-(2-hydroxy-2-adamantyl)-(1-imidazolyl)-methane], the ED50 came out at 0.79 mg/kg in the data set on tetrabenazine ptosis [1] (setting [4]) and 10 mg/kg with tetrabenazine ptosis [2] (setting [5]). The “LD50, potentiation of yohimbine toxicity” value with yohimbine toxicity amounted to 4.4 mg/kg. The “stereotypes (Method 3, rat), in words” value in the data set on stereotypes (rat, up to 300 mg/kg p.o.) is reported as “no stereotypes”.
